These results are taken from patent US20160145247A1, “Aminomethyl-Biaryl Derivatives Complement Factor D inhibitors and uses thereof” (NOVARTIS AG, priority 2013, published 2016).

The experiment deals with T1, factor D (Homo sapiens, UniProt P00746).
T1 construct: made in house; host or cells: E. coli
T1 sequence (P00746 26-253): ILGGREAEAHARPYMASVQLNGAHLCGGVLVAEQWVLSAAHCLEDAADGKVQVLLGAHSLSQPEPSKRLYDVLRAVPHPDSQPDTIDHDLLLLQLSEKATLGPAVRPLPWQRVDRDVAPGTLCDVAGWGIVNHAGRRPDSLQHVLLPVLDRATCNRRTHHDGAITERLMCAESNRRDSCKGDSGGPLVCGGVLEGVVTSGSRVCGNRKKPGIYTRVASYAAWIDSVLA
The experiment is described as follows: factor D inhibition assay of Biological Example 2. Format: biochemical.
The IC50 is the concentration at which inhibition is half-maximal. Turning to `NCc1cc(F)cc(-c2cc(Nc3ccccc3)cc(C(=O)Nc3ccccc3CC(=O)O)c2)c1` [Example 13-B, 2-(2-(3′-(Aminomethyl)-5′-fluoro-5-(phenylamino)-[1,1′-biphenyl]-3-ylcarboxamido)phenyl)acetic acid], the IC50 amounted to 9 nM. This lies in the single-digit nanomolar range.
Consider `N[C@H](CCO)c1cccc(-c2cc(COc3ccccc3CC(=O)O)cc(NCC3CC3)c2)c1` [Example 94-C, (R)-2-(2-((3′-(1-amino-3-hydroxypropyl)-5-((cyclopropylmethyl)amino)-[1,1′-biphenyl]-3-yl)methoxy)phenyl)acetic acid], for which the IC50 turned out to be 27 nM.
As to `CNC(=O)c1cc(C(=O)Nc2ccccc2CC(=O)O)cc(-c2cccc(CN)c2)c1` [Example 7-D, 2-(2-(3′-(Aminomethyl)-5-(methylcarbamoyl)-[1,1′-biphenyl]-3-ylcarboxamido)phenyl)acetic acid], the IC50 was determined as 244 nM. Compared with the last compound, the IC50 is about 9-fold higher.
In the case of `NCc1cccc(-c2cc(OCC3CCCO3)cc(C(=O)Nc3ccccc3CC(=O)O)c2)c1` (racemic) [Example 63, (±)-2-(2-(3′-(Aminomethyl)-5-((tetrahydrofuran-2-yl)methoxy)-[1,1′-biphenyl]-3-ylcarboxamido)phenyl)acetic acid], it took 16 nM to reach half-maximal inhibition (IC50). Compared with the last compound, the IC50 is about 15-fold lower.
For `NCc1cccc(-c2cc(C(=O)Nc3ccccc3CC(=O)O)nc(-c3cccc(CN)c3)c2)c1` [Example 42, 2-(2-(4,6-bis(3-(Aminomethyl)phenyl)picolinamido)phenyl)acetic acid], the IC50 stood at 13 nM.
The figure for `NCc1cccc(-c2cc(O)cc(C(=O)Nc3ccccc3CC(=O)O)c2)c1` [Example 59-C, 2-(2-(3′-(Aminomethyl)-5-hydroxy-[1,1′-biphenyl]-3-ylcarboxamido)phenyl)acetic acid] is 95 nM.
Consider `NCc1cc(F)cc(-c2cccc(S(=O)(=O)Nc3ccccc3CC(=O)O)c2)c1` [Example 49, 2-(2-(3′-(aminomethyl)-5′-fluoro-[1,1′-biphenyl]-3-ylsulfonamido)phenyl)acetic acid], for which it took 2270 nM to reach half-maximal inhibition (IC50).
`NCc1cc(F)cc(-c2cc(NCC3CCOC3)cc(C(=O)Nc3ccccc3CC(=O)O)c2)c1` (centres unmarked) [Example 79-A] showed an IC50 of 5 nM.
The same measure for `NCc1cccc(-c2cc(N3CCN(c4ccccc4)CC3)cc(C(=O)Nc3ccccc3CC(=O)O)n2)c1` [Example 51, 2-(2-(6-(3-(Aminomethyl)phenyl)-4-(4-phenylpiperazin-1-yl)picolinamido)phenyl)acetic acid]: 6 nM; for `NCc1cc(F)cc(-c2cccc(C(=O)Nc3cc(F)ccc3CC(=O)O)c2)c1` [Example 21-I]: 469 nM.
The same measure for `CNC(=O)c1cc(COc2cc(C(=O)Nc3ccccc3CC(=O)O)cc(-c3cccc(CN)c3)c2)ccn1` [Example 70, 2-(2-(3′-(Aminomethyl)-5-((2-(methylcarbamoyl)pyridin-4-yl)methoxy)-[1,1′-biphenyl]-3-ylcarboxamido)phenyl)acetic acid]: 11 nM; for `CCNc1ccc(CC(=O)O)c(OCc2cccc(-c3cccc(CN)c3)c2)c1` [Example 294-E]: 490 nM.
Compound `NCc1cccc(-c2cc(COc3ccccc3CC(=O)O)cc(OC[C@H]3CCCO3)c2)n1` [Example 138-M] gave an IC50 of 5 nM.
The same measure for `C[C@@H](N)c1cccc(-c2cc(Br)cc(COc3ccccc3CC(=O)O)c2)c1F` [Example 120-U]: 12 nM; for `N[C@@H](CF)c1cccc(-c2cc(COc3ccccc3CC(=O)O)cc(NCC3CC3)c2)c1F` [Example 216-B]: 56 nM; for `CCOc1cc(COc2ccccc2CC(=O)O)cc(-c2cccc(C(N)CF)c2F)c1` (centres unmarked) [Example 258-C, 2-(2-((3′-(1-amino-2-fluoroethyl)-5-ethoxy-2′-fluoro-[1,1′-biphenyl]-3-yl)methoxy)phenyl)acetic acid]: 11 nM.
Compound `CCc1ccc(-c2cccc([C@@H](C)N)c2F)cc1COc1ccccc1CC(=O)O` [Example 282-D, (R)-2-(2-((3′-(1-aminoethyl)-4-ethyl-2′-fluoro-[1,1′-biphenyl]-3-yl)methoxy)phenyl)acetic acid] yielded an IC50 of 16 nM.
`CCOCc1cc(COc2ccccc2CC(=O)O)cc(-c2cccc([C@@H](C)N)c2F)c1` [Example 120-Q]: the IC50 was 17 nM.
The figure for `NCc1cccc(-c2ccc3c(c2)C(Oc2ccccc2CC(=O)O)CCC3)c1` (single isomer, unassigned) [175 b) (tr = 4.1 min), (+) or (−)-(2-((7-(3-(aminomethyl)phenyl)-1,2,3,4-tetrahydronaphthalen-1-yl)oxy)phenyl)acetic acid] is 3 nM.
In turn, `Cc1cc(COc2ccccc2CC(=O)O)cc(-c2cccc([C@@H](C)N)c2F)c1` [Example 210-C, (R)-2-(2-((3′-(1-aminoethyl)-2′-fluoro-5-methyl-[1,1′-biphenyl]-3-yl)methoxy)phenyl)acetic acid] yielded an IC50 of 12 nM.
Regarding `NCc1cc(F)cc(-c2nc(C(=O)Nc3ccccc3CC(=O)O)c(Cl)s2)c1` [Example 30-D, 2-(2-(2-(3-(aminomethyl)-5-fluorophenyl)-5-chlorothiazole-4-carboxamido)phenyl)acetic acid], half-maximal inhibition (IC50) required 31 nM.
For `NCc1cccc(-c2cc(COc3ccccc3CC(=O)O)cc(NCC3CCCO3)c2F)c1` (racemic) [Example 156-B, (±)-2-(2-((3′-(Aminomethyl)-6-fluoro-5-(((tetrahydrofuran-2-yl)methyl)amino)-[1,1′-biphenyl]-3-yl)methoxy)phenyl)acetic acid], it took 2 nM to reach half-maximal inhibition (IC50).
`CC(=O)Nc1cc(C(=O)Nc2ccccc2CC(=O)O)cc(-c2cc(F)cc(CN)c2)c1` [Example 67-B, 2-(2-(5-Acetamido-3′-(aminomethyl)-5′-fluoro-[1,1′-biphenyl]-3-ylcarboxamido)phenyl)acetic acid] yielded a half-inhibitory concentration (IC50) of 30 nM. Against the preceding compound, the IC50 is about 15-fold higher.
`NC(CO)c1cccc(-c2cccc(C(=O)Nc3ccccc3CC(=O)O)c2)c1` (racemic) [Example 86, (±)-2-(2-(3′-(1-Amino-2-hydroxyethyl)-[1,1′-biphenyl]-3-ylcarboxamido)phenyl)acetic acid] registered an IC50 of 1260 nM. This IC50 lies about 42-fold higher than the previous one.
In turn, `CC(O)c1ccc(NC(=O)c2cccc(-c3cc(F)cc(CN)c3)c2)c(CC(=O)O)c1` (centres unmarked) [Example 24, 2-(2-(3′-(Aminomethyl)-5′-fluoro-[1,1′-biphenyl]-3-ylcarboxamido)-5-(1-hydroxyethyl)phenyl)acetic acid] came in with an IC50 of 1740 nM.
In turn, `COCc1cc(COc2ccccc2CC(=O)O)cc(-c2cccc([C@H](C)N)c2)c1` [Example 120-K] showed an IC50 of 190 nM.
In turn, `C[C@@H](N)c1cccc(-c2cc(COc3ccccc3CC(=O)O)cc(CC3CCOCC3)c2)c1F` [Example 246-C, (R)-2-(2-((3′-(1-aminoethyl)-2′-fluoro-5-((tetrahydro-2H-pyran-4-yl)methyl)-[1,1′-biphenyl]-3-yl)methoxy)phenyl)acetic acid] returned an IC50 of less than 1 nM.
The same measure for `N[C@H](CO)c1cccc(-c2cc(COc3ccccc3CC(=O)O)c(F)c(NCC3CCCO3)c2)c1` (stereo partly drawn) [155 b), 2-(2-((3′-((S)-1-Amino-2-hydroxyethyl)-4-fluoro-5-(((tetrahydrofuran-2-yl)methyl)amino)-[1,1′-biphenyl]-3-yl)methoxy)phenyl)acetic acid]: 4 nM.
As to `NCc1cc(F)cc(-c2nc(C(=O)Nc3ccccc3CC(=O)O)c(NC[C@@H]3CCCO3)s2)c1` [Example 33, (S)-2-(2-(2-(3-(Aminomethyl)-5-fluorophenyl)-5-(((tetrahydrofuran-2-yl)methyl)amino)thiazole-4-carboxamido)phenyl)acetic acid], the IC50 worked out at 7 nM.
`C[C@@H](N)c1cccc(-c2cc(CO)cc(COc3ccccc3CC(=O)O)c2)c1F` [Example 120-B]: the IC50 amounted to 55 nM.
The figure for `COc1ccc(CC(=O)O)c(NC(=O)c2cccc(-c3cc(F)cc(CN)c3)n2)c1` [Example 21-Q] is 22 nM.
The same measure for `NCc1cccc(-c2cccc(S(=O)(=O)Nc3ccccc3CC(=O)O)c2)c1` [Example 48, 2-(2-(3′-(Aminomethyl)-[1,1′-biphenyl]-3-ylsulfonamido)phenyl)acetic acid]: 2890 nM.
For `COCCNc1cc(COc2ccccc2CC(=O)O)cc(-c2cccc([C@H](N)CO)c2)c1` [Example 84, (S)-2-(2-((3′-(1-Amino-2-hydroxyethyl)-5-((2-methoxyethyl)amino)-[1,1′-biphenyl]-3-yl)methoxy)phenyl)acetic acid], the IC50 worked out at 5 nM.
The same measure for `NCc1cccc(-c2cc(CCO)cc(COc3ccccc3CC(=O)O)c2)c1` [Example 105-C, 2-(2-((3′-(Aminomethyl)-5-(2-hydroxyethyl)-[1,1′-biphenyl]-3-yl)methoxy)phenyl)acetic acid]: 15 nM.
`NCc1cccc(-c2cc(COc3ccccc3CC(=O)O)cc(C(Nc3ccccc3)C(F)(F)F)c2)c1` (centres unmarked) [Example 208-C] returned an IC50 of 6 nM.
The compound `NCc1cc(F)cc(-c2nc(C(=O)Nc3ccccc3CC(=O)O)cs2)c1` [Example 29, 2-(2-(2-(3-(aminomethyl)-5-fluorophenyl)thiazole-4-carboxamido)phenyl)acetic acid] had an IC50 of 62 nM. Against the preceding compound, the IC50 is about 10-fold higher.
Consider `C[C@H](N)c1cccc(-c2cc(COc3ccccc3CC(=O)O)cc(OCc3ccccn3)c2)c1F` [Example 214-M], for which the IC50 was determined as 20 nM.
The compound `N#Cc1cc(COc2ccccc2CC(=O)O)cc(-c2cccc(CN)c2)c1` [Example 113-B, 2-(2-((3′-(Aminomethyl)-5-cyano-[1,1′-biphenyl]-3-yl)methoxy)phenyl)acetic acid] gave an IC50 of 30 nM.
For the compound `Cc1ccc(CC(=O)O)c(NC(=O)c2cccc(-c3cc(F)cc(CN)c3)c2)c1` [Example 21-B], the IC50 amounted to 47 nM.
For the compound `N[C@H](CO)c1cccc(-c2cc(Cl)cc(COc3ccccc3CC(=O)O)c2)c1` [Example 108-B, (S)-2-(2-((3′-(1-Amino-2-hydroxyethyl)-5-chloro-[1,1′-biphenyl]-3-yl)methoxy)phenyl)acetic acid], the midpoint of inhibition, the IC50, lay at 7 nM. Compared with the last compound, the IC50 is about 6.7-fold lower.
In the case of `N[C@H](CO)c1cccc(-c2cc(COc3ccccc3CC(=O)O)ccc2F)c1` [Example 122, (S)-2-(2-((3′-(1-Amino-2-hydroxyethyl)-6-fluoro-[1,1′-biphenyl]-3-yl)methoxy)phenyl)acetic acid], the IC50 was found to be 15 nM.
